# Tests used:
# BT-474 [1] = assay: normalised viability (% of control), CellTiter-Blue; higher = more viable cells (about 100 = DMSO control); conditions: 100 nM; incubation time: 72 h
# Description: (§1)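 DSRT, CellTiter-Blue viability, 72 h incubation. Signal is normalised to DMSO and benzethonium chloride controls. Value is the normalised response at dose 3.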
# BT-549 [2] = assay: as above; conditions: 100 nM; incubation time: 72 h
# Description: as §1
# CAL-120 [3] = assay: as above; conditions: 100 nM; incubation time: 72 h
# Description: as §1
# CAL-148 [4] = assay: as above; conditions: 10 nM; incubation time: 72 h
# Description: as §1
# CAL-51 [5] = assay: as above; conditions: 10 nM; incubation time: 72 h
# Description: as §1
# CAL-85-1 [6] = assay: as above; conditions: 10 nM; incubation time: 72 h
# Description: as §1
# DU-4475 [7] = assay: as above; conditions: 10 nM; incubation time: 72 h
# Description: as §1
# HCC1143 [8] = assay: as above; conditions: 100 nM; incubation time: 72 h
# Description: as §1
# HCC1599 [9] = assay: as above; conditions: 100 nM; incubation time: 72 h
# Description: as §1
# HCC1937 [10] = assay: as above; conditions: 100 nM; incubation time: 72 h
# Description: as §1
# HDQ-P1 [11] = assay: as above; conditions: 10 nM; incubation time: 72 h
# Description: as §1
# Hs578T [12] = assay: as above; conditions: 100 nM; incubation time: 72 h
# Description: as §1
# MDA-MB-231 [13] = assay: as above; conditions: 100 nM; incubation time: 72 h
# Description: as §1
# MDA-MB-436 [14] = assay: as above; conditions: 100 nM; incubation time: 72 h
# Description: as §1
# MDA-MB-453 [15] = assay: as above; conditions: 10 nM; incubation time: 72 h
# Description: as §1
# MDA-MB-468 [16] = assay: as above; conditions: 100 nM; incubation time: 72 h
# Description: as §1
# MFM-223 [17] = assay: as above; conditions: 100 nM; incubation time: 72 h
# Description: as §1
# SK-BR-3 [18] = assay: as above; conditions: 100 nM; incubation time: 72 h
# Description: as §1
# BT-474 [19] = assay: normalised viability (% of control), CellTiter-Blue; higher = more viable cells (about 100 = DMSO control); conditions: incubation time: 72 h
# Summary of the method: (§2)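 Normalised viability is given for a single listed concentration of the series. In 384-well plates, breast cancer cell lines were incubated 72 h with compound, then read with CellTiter-Blue (2 h, 37 °C) at 560/590 nm. Per-plate scaling set vehicle to 100 and a positive kill control to 0, with Z'-factor quality control.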
# BT-549 [20] = assay: as above; conditions: incubation time: 72 h
# Summary of the method: as §2
# CAL-120 [21] = assay: as above; conditions: incubation time: 72 h
# Summary of the method: as §2
# CAL-148 [22] = assay: as above; conditions: incubation time: 72 h
# Summary of the method: as §2
# CAL-51 [23] = assay: as above; conditions: incubation time: 72 h
# Summary of the method: as §2
# CAL-85-1 [24] = assay: as above; conditions: incubation time: 72 h
# Summary of the method: as §2
# DU-4475 [25] = assay: as above; conditions: incubation time: 72 h
# Summary of the method: as §2
# HCC1143 [26] = assay: as above; conditions: incubation time: 72 h
# Summary of the method: as §2
# HCC1599 [27] = assay: as above; conditions: incubation time: 72 h
# Summary of the method: as §2
# HCC1937 [28] = assay: as above; conditions: incubation time: 72 h
# Summary of the method: as §2
# HDQ-P1 [29] = assay: as above; conditions: incubation time: 72 h
# Summary of the method: as §2
# Hs578T [30] = assay: as above; conditions: incubation time: 72 h
# Summary of the method: as §2
# MDA-MB-231 [31] = assay: as above; conditions: incubation time: 72 h
# Summary of the method: as §2
# MDA-MB-436 [32] = assay: as above; conditions: incubation time: 72 h
# Summary of the method: as §2
# MDA-MB-453 [33] = assay: as above; conditions: incubation time: 72 h
# Summary of the method: as §2
# MDA-MB-468 [34] = assay: as above; conditions: incubation time: 72 h
# Summary of the method: as §2
# MFM-223 [35] = assay: as above; conditions: incubation time: 72 h
# Summary of the method: as §2
# SK-BR-3 [36] = assay: as above; conditions: incubation time: 72 h
# Summary of the method: as §2
# BT-474 [37] = assay: normalised viability (% of control), CellTiter-Blue; higher = more viable cells (100 = DMSO, 0 = benzethonium chloride kill control); conditions: incubation time: 72 h
# Description: (§3)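 DSRT, CellTiter-Blue viability, 72 h incubation. Signal is normalised to DMSO and benzethonium chloride controls. Value is the normalised response at dose 1.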
# BT-549 [38] = assay: as above; conditions: incubation time: 72 h
# Description: as §3
# CAL-120 [39] = assay: as above; conditions: incubation time: 72 h
# Description: as §3
# CAL-148 [40] = assay: as above; conditions: incubation time: 72 h
# Description: as §3
# CAL-51 [41] = assay: as above; conditions: incubation time: 72 h
# Description: as §3
# CAL-85-1 [42] = assay: as above; conditions: incubation time: 72 h
# Description: as §3
# DU-4475 [43] = assay: as above; conditions: incubation time: 72 h
# Description: as §3
# HCC1143 [44] = assay: as above; conditions: incubation time: 72 h
# Description: as §3
# HCC1599 [45] = assay: as above; conditions: incubation time: 72 h
# Description: as §3
# HCC1937 [46] = assay: as above; conditions: incubation time: 72 h
# Description: as §3
# HDQ-P1 [47] = assay: as above; conditions: incubation time: 72 h
# Description: as §3
# Hs578T [48] = assay: as above; conditions: incubation time: 72 h
# Description: as §3
# MDA-MB-231 [49] = assay: as above; conditions: incubation time: 72 h
# Description: as §3
# MDA-MB-436 [50] = assay: as above; conditions: incubation time: 72 h
# Description: as §3
# MDA-MB-453 [51] = assay: as above; conditions: incubation time: 72 h
# Description: as §3
# MDA-MB-468 [52] = assay: as above; conditions: incubation time: 72 h
# Description: as §3
# MFM-223 [53] = assay: as above; conditions: incubation time: 72 h
# Description: as §3
# SK-BR-3 [54] = assay: as above; conditions: incubation time: 72 h
# Description: as §3
smiles,measurement,setting,value
C[C@@H](CN1CC(=O)NC(=O)C1)N1CC(=O)NC(=O)C1 [Dexrazoxane],normalised viability,BT-474 [1],107%
same,normalised viability,BT-549 [2],78.5%
same,normalised viability,CAL-120 [3],91.8%
same,normalised viability,CAL-148 [4],85%
same,normalised viability,CAL-51 [5],95.6%
same,normalised viability,CAL-85-1 [6],110%
same,normalised viability,DU-4475 [7],110%
same,normalised viability,HCC1143 [8],88.6%
same,normalised viability,HCC1599 [9],124%
same,normalised viability,HCC1937 [10],103%
same,normalised viability,HDQ-P1 [11],91%
same,normalised viability,Hs578T [12],89%
same,normalised viability,MDA-MB-231 [13],96.6%
same,normalised viability,MDA-MB-436 [14],101%
same,normalised viability,MDA-MB-453 [15],94.6%
same,normalised viability,MDA-MB-468 [16],109%
same,normalised viability,MFM-223 [17],93.3%
same,normalised viability,SK-BR-3 [18],61%
same,normalised viability,BT-474 [19]; 10 nM,100%
same,normalised viability,BT-474 [19]; 1000 nM,101%
same,normalised viability,BT-474 [19]; 10000 nM,114%
same,normalised viability,BT-549 [20]; 10 nM,87.2%
same,normalised viability,BT-549 [20]; 1000 nM,79.2%
same,normalised viability,BT-549 [20]; 10000 nM,76.8%
same,normalised viability,CAL-120 [21]; 10 nM,90.1%
same,normalised viability,CAL-120 [21]; 1000 nM,100%
same,normalised viability,CAL-120 [21]; 10000 nM,100%
same,normalised viability,CAL-148 [22]; 3 nM,84.4%
same,normalised viability,CAL-148 [22]; 30 nM,92.6%
same,normalised viability,CAL-148 [22]; 100 nM,91.5%
same,normalised viability,CAL-51 [23]; 3 nM,93.9%
same,normalised viability,CAL-51 [23]; 30 nM,96.1%
same,normalised viability,CAL-51 [23]; 100 nM,92.8%
same,normalised viability,CAL-85-1 [24]; 3 nM,98.4%
same,normalised viability,CAL-85-1 [24]; 30 nM,93.7%
same,normalised viability,CAL-85-1 [24]; 100 nM,96.7%
same,normalised viability,DU-4475 [25]; 3 nM,103%
same,normalised viability,DU-4475 [25]; 30 nM,97.4%
same,normalised viability,DU-4475 [25]; 100 nM,104%
same,normalised viability,HCC1143 [26]; 10 nM,88%
same,normalised viability,HCC1143 [26]; 1000 nM,94.5%
same,normalised viability,HCC1143 [26]; 10000 nM,99.6%
same,normalised viability,HCC1599 [27]; 10 nM,123%
same,normalised viability,HCC1599 [27]; 1000 nM,93.3%
same,normalised viability,HCC1599 [27]; 10000 nM,115%
same,normalised viability,HCC1937 [28]; 10 nM,99.1%
same,normalised viability,HCC1937 [28]; 1000 nM,82%
same,normalised viability,HCC1937 [28]; 10000 nM,92.3%
same,normalised viability,HDQ-P1 [29]; 3 nM,108%
same,normalised viability,HDQ-P1 [29]; 30 nM,107%
same,normalised viability,HDQ-P1 [29]; 100 nM,44.3%
same,normalised viability,Hs578T [30]; 10 nM,87.7%
same,normalised viability,Hs578T [30]; 1000 nM,88.8%
same,normalised viability,Hs578T [30]; 10000 nM,92.1%
same,normalised viability,MDA-MB-231 [31]; 10 nM,95%
same,normalised viability,MDA-MB-231 [31]; 1000 nM,96.6%
same,normalised viability,MDA-MB-231 [31]; 10000 nM,107%
same,normalised viability,MDA-MB-436 [32]; 10 nM,91.8%
same,normalised viability,MDA-MB-436 [32]; 1000 nM,95.8%
same,normalised viability,MDA-MB-436 [32]; 10000 nM,95.6%
same,normalised viability,MDA-MB-453 [33]; 3 nM,104%
same,normalised viability,MDA-MB-453 [33]; 30 nM,103%
same,normalised viability,MDA-MB-453 [33]; 100 nM,101%
same,normalised viability,MDA-MB-468 [34]; 10 nM,101%
same,normalised viability,MDA-MB-468 [34]; 1000 nM,97.4%
same,normalised viability,MDA-MB-468 [34]; 10000 nM,100%
same,normalised viability,MFM-223 [35]; 10 nM,95.2%
same,normalised viability,MFM-223 [35]; 1000 nM,91.2%
same,normalised viability,MFM-223 [35]; 10000 nM,93%
same,normalised viability,SK-BR-3 [36]; 10 nM,93.8%
same,normalised viability,SK-BR-3 [36]; 1000 nM,105%
same,normalised viability,SK-BR-3 [36]; 10000 nM,103%
N[C@@H](Cc1ccc(N(CCCl)CCCl)cc1)C(=O)O [Melphalan] (0.099 nM),normalised viability,BT-474 [37],85.2%
same,normalised viability,BT-549 [38],107%
same,normalised viability,CAL-120 [39],82.9%
same,normalised viability,CAL-148 [40],112%
same,normalised viability,CAL-51 [41],100%
same,normalised viability,CAL-85-1 [42],85.7%
same,normalised viability,DU-4475 [43],99.8%
same,normalised viability,HCC1143 [44],84.7%
same,normalised viability,HCC1599 [45],96.1%
same,normalised viability,HCC1937 [46],87.2%
same,normalised viability,HDQ-P1 [47],107%
same,normalised viability,Hs578T [48],93.8%
same,normalised viability,MDA-MB-231 [49],95.1%
same,normalised viability,MDA-MB-436 [50],89.8%
same,normalised viability,MDA-MB-453 [51],97.8%
same,normalised viability,MDA-MB-468 [52],102%
same,normalised viability,MFM-223 [53],94.3%
same,normalised viability,SK-BR-3 [54],94%
Cc1c(C(=O)Nc2ccc(N3C[C@@H](C)O[C@@H](C)C3)nc2)cccc1-c1ccc(OC(F)(F)F)cc1 [NVP-LDE225] (1 nM),normalised viability,BT-474 [37],109%
same,normalised viability,BT-549 [38],87.2%
same,normalised viability,CAL-120 [39],93.1%
same,normalised viability,CAL-148 [40],92.9%
same,normalised viability,CAL-51 [41],103%
same,normalised viability,CAL-85-1 [42],99.5%
same,normalised viability,DU-4475 [43],102%
same,normalised viability,HCC1143 [44],105%
same,normalised viability,HCC1599 [45],85.8%
same,normalised viability,HCC1937 [46],96.4%
same,normalised viability,HDQ-P1 [47],70.9%
same,normalised viability,Hs578T [48],111%
same,normalised viability,MDA-MB-231 [49],98%
same,normalised viability,MDA-MB-436 [50],79.5%
same,normalised viability,MDA-MB-453 [51],108%
same,normalised viability,MDA-MB-468 [52],129%
same,normalised viability,MFM-223 [53],96.4%
same,normalised viability,SK-BR-3 [54],91.5%

# — the supplement of paper PMC4862054
